# Target: T1, p38 MAPK/MK2 (Homo sapiens, UniProt Q16539)
# T1 construct: purchased Carna (p38α); Abcam (MK2) 04-152; 79910
# Assay: In vitro activity assay of p38 MAPK/MK2 (Z-LYTE kinase assay kit)
# Type: biochemical
# Conditions: active p38α, inactive MK2, Ser/Thr 4; 1-hour reaction at 20° C.
# Method: The inhibitory effect of the compound on p38 MAPK/MK2 was evaluated using the Z-LYTE kinase assay kit (Thermo, PV3177). The test compound was dissolved in DMSO to obtain a 10 mM stock solution and stored at −20° C. for future use. The initial concentration of the compound was […], with 1% DMSO, 5-fold serial dilution, 8 concentrations, and duplicate wells. […] After a 1-hour reaction at 20° C., Development Reagent A diluted 2048-fold was added to each well, followed by incubation at room temperature for 1 hour. The reaction was terminated by adding 5 μL of stop buffer, and the plate was read using a microplate reader (Ex. 400 nm, Em. 445 nm; Ex. 400 nm, Em. 520 nm). The concentration-effect curve was fitted using GraphPad Prism 8 software, and the compound concentration resulting in 50% inhibition, IC50, was calculated.
# T1 sequence (Q16539 whole entry): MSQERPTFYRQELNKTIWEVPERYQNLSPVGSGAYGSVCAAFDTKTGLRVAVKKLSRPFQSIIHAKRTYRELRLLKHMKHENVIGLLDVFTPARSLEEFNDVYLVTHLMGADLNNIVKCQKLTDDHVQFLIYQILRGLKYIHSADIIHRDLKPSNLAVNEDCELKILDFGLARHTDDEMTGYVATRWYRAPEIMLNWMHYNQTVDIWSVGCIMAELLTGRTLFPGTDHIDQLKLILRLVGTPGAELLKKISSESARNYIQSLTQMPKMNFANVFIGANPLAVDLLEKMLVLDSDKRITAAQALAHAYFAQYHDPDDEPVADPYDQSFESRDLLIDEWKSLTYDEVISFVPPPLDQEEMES
# T1 sequence (P49137 whole entry partner): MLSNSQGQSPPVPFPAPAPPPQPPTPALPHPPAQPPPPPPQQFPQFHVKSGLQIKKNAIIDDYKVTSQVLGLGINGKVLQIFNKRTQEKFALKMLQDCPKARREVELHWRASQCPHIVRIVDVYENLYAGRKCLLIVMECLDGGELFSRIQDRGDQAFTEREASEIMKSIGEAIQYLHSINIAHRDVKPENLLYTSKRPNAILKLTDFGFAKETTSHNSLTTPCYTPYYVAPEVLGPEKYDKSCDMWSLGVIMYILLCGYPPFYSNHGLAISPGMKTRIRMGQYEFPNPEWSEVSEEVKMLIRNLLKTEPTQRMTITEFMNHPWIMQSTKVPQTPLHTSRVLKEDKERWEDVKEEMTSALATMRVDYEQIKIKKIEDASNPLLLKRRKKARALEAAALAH
row,Compound,IC50
1,Cc1cnc(-c2ccc(F)c(C(C)(C)O)c2F)cc1-n1c(C)cc(OCc2ncc(F)cc2F)c(Cl)c1=O [Compound 111-P2],0.22 nM
2,Cc1cnc(-c2cccc([C@@](C)(O)CO)c2F)c(F)c1-n1c(C)cc(OCc2ncc(F)cc2F)c(Cl)c1=O [Compound 112-P1],0.13 nM
3,Cc1cnc(-c2ccc(F)c([C@@](C)(O)CO)c2F)c(F)c1-n1c(C)cc(OCc2ncc(F)cc2F)c(Cl)c1=O [Compound 113-P1],0.09 nM
4,CNC(=O)C(C)(O)c1cc(-c2ncc(C)c(-n3c(C)cc(OCc4ncc(F)cc4F)c(Cl)c3=O)c2F)ccc1F (stereo not shown) [Compound 124-P2],0.1 nM
5,Cc1cnc(-c2ccc(F)c(C(C)(O)C(N)=O)c2)c(F)c1-n1c(C)cc(OCc2ncc(F)cc2F)c(Cl)c1=O (stereo not shown) [Compound 128-P1],0.15 nM
6,Cc1cnc(-c2cccc(C(C)(C)CO)c2F)cc1-n1c(C)cc(OCc2ncc(F)cc2F)c(Cl)c1=O [Compound 137],11.7 nM
7,Cc1cc(OCc2ncc(F)cc2F)c(Cl)c(=O)n1-c1ccnc(-c2cccc(C(C)(C)O)c2F)c1 [Compound 141],0.794 nM
8,[2H]C([2H])(Oc1cc(C)n(-c2cc(-c3ccc(F)c([C@@](C)(O)CO)c3F)ncc2C)c(=O)c1Cl)c1ncc(F)cc1F [Compound 145-P1],1.19 nM
9,[2H]C([2H])(Oc1cc(C)n(-c2cc(-c3cccc([C@@](C)(O)CO)c3F)ncc2C)c(=O)c1Cl)c1ncc(F)cc1F [Compound 146-P1],1.43 nM
10,Cc1cnc(-c2cccc([C@@H](O)CO)c2F)cc1-n1c(C)cc(OCc2ncc(F)cc2F)c(Cl)c1=O [Compound 151-P1],1.56 nM

# System: TNF-α in human PBMC cells
# Assay: In vitro TNF-α activity assay in human PBMC cell supernatant (LPS, ELISA)
# Type: cell-based
# Conditions: Homo sapiens, PBMC, 24 h, LPS 100 ng/mL, read-out: p38 MAPK/TNF-α IC50
# Method: The inhibitory effect of the compound on TNF-α in the supernatant of human PBMC cells was evaluated using an ELISA detection kit (Beyotime, PI518). The test compound was dissolved in DMSO to obtain a 10 mM stock solution and stored at −20° C. for future use. The initial concentration of the compound was […], followed by 5-fold serial dilution to obtain 6 concentrations. Cells were plated in duplicate, and ELISA was performed in single wells. The final concentration of DMSO was 0.4%. Alternatively, the initial concentration of the compound, dilution factor, number of concentration gradients, and replicates could be adjusted based on the specific screening conditions.
# Fresh human peripheral blood mononuclear cells (PBMCs) (Sailybio) were seeded at a density of 2×10^5 cells per well in a 96-well plate (Corning, 3599), with each well containing 100 μL of RPMI-1640 (Gibco #A1049101)+10% FBS (Gibco, 10099141C), and incubated overnight at 37° C. under 5% CO2. Test compounds were added to the 96-well culture plate at a volume of 25 μL per well. After 1 hour, 5 μL of LPS was added to achieve a final concentration of 100 ng/mL. No LPS and compound were added to the negative control wells, and no compound was added to the positive control wells. The mixture was further incubated for 24 hours at 37° C. under 5% CO2. Subsequently, the cell culture supernatant was collected by centrifugation at 500 rcf for 8 minutes. The concentration of TNF-α was measured according to the operation manual of the ELISA kit. The concentration-effect curve was fitted using GraphPad Prism 8 software, and the compound concentration resulting in 50% inhibition, IC50, was calculated.
row,Compound,IC50
1,Cc1cnc(-c2ccc(F)c(C(C)(C)O)c2F)cc1-n1c(C)cc(OCc2ncc(F)cc2F)c(Cl)c1=O [Compound 111-P2],1.43 nM
2,Cc1cnc(-c2cccc([C@@](C)(O)CO)c2F)c(F)c1-n1c(C)cc(OCc2ncc(F)cc2F)c(Cl)c1=O [Compound 112-P1],0.44 nM
3,Cc1cnc(-c2ccc(F)c([C@@](C)(O)CO)c2F)c(F)c1-n1c(C)cc(OCc2ncc(F)cc2F)c(Cl)c1=O [Compound 113-P1],1.7 nM
4,Cc1cnc(-c2cccc(C(C)(C)CO)c2F)cc1-n1c(C)cc(OCc2ncc(F)cc2F)c(Cl)c1=O [Compound 137],0.84 nM
5,Cc1cc(OCc2ncc(F)cc2F)c(Cl)c(=O)n1-c1ccnc(-c2cccc(C(C)(C)O)c2F)c1 [Compound 141],14.1 nM
6,[2H]C([2H])(Oc1cc(C)n(-c2cc(-c3ccc(F)c([C@@](C)(O)CO)c3F)ncc2C)c(=O)c1Cl)c1ncc(F)cc1F [Compound 145-P1],8.51 nM
7,[2H]C([2H])(Oc1cc(C)n(-c2cc(-c3cccc([C@@](C)(O)CO)c3F)ncc2C)c(=O)c1Cl)c1ncc(F)cc1F [Compound 146-P1],3.38 nM
8,Cc1cnc(-c2cccc([C@@H](O)CO)c2F)cc1-n1c(C)cc(OCc2ncc(F)cc2F)c(Cl)c1=O [Compound 151-P1],12.9 nM
9,"Cc1cnc(-c2ccnc(C(C)(C)O)n2)cc1-n1c(C)cc(OCc2ncc(F)cc2F)c(Cl)c1=O [Compound C, reference compound]",26.4 nM

# System: not listed separately
# Assay: In vitro liver microsome stability, mouse
# Type: in vitro ADME
# Conditions: liver microsomes, 0.5 mg/mL microsomes, 1 μM compound, NADPH, 37° C., read-out: Mouse liver microsomes Half-life T1/2
# Method: (§1) The reference compound used in this experiment was Ketanserin, and the final concentration of microsomes in the experimental system was 0.5 mg/mL. The PBS buffer was a 50 mM K2HPO4 buffer. The concentration of the test compound was 1 μM. The microsomes were added to PBS, and the control/test compounds were respectively added to the corresponding reaction systems, mixed thoroughly, and pre-incubated in a 37° C. water bath for 5 minutes. The reaction was initiated by adding 20 mM NADPH solution under 37° C. water bath conditions (for the No NADPH samples, an equal volume of PBS solution was used as a substitute for the 20 mM NADPH solution). At the reaction time points of 0 min, 10 min, 30 mun, 60 min, and 90 min, 30 μL of reaction samples were taken from each reaction system (for the No NADPH samples, sampling was performed at 0 min and 90 min), and the reaction was immediately terminated by adding 300 μL of the internal standard acetonitrile solution. After centrifugation at 4000 rpm, the supernatant was taken and mixed thoroughly with an equal volume of pure water. The samples at each time point were analyzed by LC-MS/MS (AB Triple Quard 5500) to determine the compound content, and the T1/2 was calculated.
row,Compound,half-life at 1 μM
1,Cc1cnc(-c2ccc(F)c(C(C)(C)O)c2F)cc1-n1c(C)cc(OCc2ncc(F)cc2F)c(Cl)c1=O [Compound 111-P2],> 4.66 h
2,Cc1cc(OCc2ncc(F)cc2F)c(Cl)c(=O)n1-c1ccnc(-c2cccc(C(C)(C)O)c2F)c1 [Compound 141],> 4.66 h
3,[2H]C([2H])(Oc1cc(C)n(-c2cc(-c3ccc(F)c([C@@](C)(O)CO)c3F)ncc2C)c(=O)c1Cl)c1ncc(F)cc1F [Compound 145-P1],> 4.66 h
4,[2H]C([2H])(Oc1cc(C)n(-c2cc(-c3cccc([C@@](C)(O)CO)c3F)ncc2C)c(=O)c1Cl)c1ncc(F)cc1F [Compound 146-P1],2.29 h

# System: not listed separately
# Assay: In vitro liver microsome stability, rat
# Type: in vitro ADME
# Conditions: liver microsomes, 0.5 mg/mL microsomes, 1 μM compound, NADPH, 37° C., read-out: Rat liver microsomes Half-life T1/2
# Method: as §1
row,Compound,half-life at 1 μM
1,Cc1cnc(-c2ccc(F)c(C(C)(C)O)c2F)cc1-n1c(C)cc(OCc2ncc(F)cc2F)c(Cl)c1=O [Compound 111-P2],> 4.66 h
2,Cc1cc(OCc2ncc(F)cc2F)c(Cl)c(=O)n1-c1ccnc(-c2cccc(C(C)(C)O)c2F)c1 [Compound 141],2.51 h
3,[2H]C([2H])(Oc1cc(C)n(-c2cc(-c3ccc(F)c([C@@](C)(O)CO)c3F)ncc2C)c(=O)c1Cl)c1ncc(F)cc1F [Compound 145-P1],> 4.66 h
4,[2H]C([2H])(Oc1cc(C)n(-c2cc(-c3cccc([C@@](C)(O)CO)c3F)ncc2C)c(=O)c1Cl)c1ncc(F)cc1F [Compound 146-P1],> 4.66 h

# System: not listed separately
# Assay: In vitro liver microsome stability, human
# Type: in vitro ADME
# Conditions: liver microsomes, 0.5 mg/mL microsomes, 1 μM compound, NADPH, 37° C., read-out: Human liver microsomes Half-life T1/2
# Method: as §1
row,Compound,half-life at 1 μM
1,Cc1cnc(-c2ccc(F)c(C(C)(C)O)c2F)cc1-n1c(C)cc(OCc2ncc(F)cc2F)c(Cl)c1=O [Compound 111-P2],> 4.66 h
2,Cc1cnc(-c2cccc([C@@](C)(O)CO)c2F)c(F)c1-n1c(C)cc(OCc2ncc(F)cc2F)c(Cl)c1=O [Compound 112-P1],> 4.66 h
3,Cc1cnc(-c2ccc(F)c([C@@](C)(O)CO)c2F)c(F)c1-n1c(C)cc(OCc2ncc(F)cc2F)c(Cl)c1=O [Compound 113-P1],> 4.66 h
4,CNC(=O)C(C)(O)c1cc(-c2ncc(C)c(-n3c(C)cc(OCc4ncc(F)cc4F)c(Cl)c3=O)c2F)ccc1F (stereo not shown) [Compound 124-P2],> 4.66 h
5,Cc1cnc(-c2ccc(F)c(C(C)(O)C(N)=O)c2)c(F)c1-n1c(C)cc(OCc2ncc(F)cc2F)c(Cl)c1=O (stereo not shown) [Compound 128-P1],> 4.66 h
6,[2H]C([2H])(Oc1cc(C)n(-c2cc(-c3ccc(F)c([C@@](C)(O)CO)c3F)ncc2C)c(=O)c1Cl)c1ncc(F)cc1F [Compound 145-P1],> 4.66 h
7,[2H]C([2H])(Oc1cc(C)n(-c2cc(-c3cccc([C@@](C)(O)CO)c3F)ncc2C)c(=O)c1Cl)c1ncc(F)cc1F [Compound 146-P1],> 4.66 h
